Values joined by “and” are separate entries in the source; they are usually repeats but may differ in a detail not shown here. Equal entries are not always repeated.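 96-well plates; 48 h exposure; 5 concentrations. Endpoints by linear interpolation between flanking doses. Not reached: highest tested concentration assigned. The concentration for 50% growth inhibition is given as GI50. Definition used: TGI = concentration required for complete inhibition of growth.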
Key:
Test in all cases: NCI tumour cell line growth inhibition, 48 h
[1] = tested on: SK-MEL-28 melanoma
[2] = tested on: MDA-MB-435
[3] = tested on: SNB-19 CNS
[4] = tested on: SW-620 colon
[5] = tested on: NCI-H460 lung
[6] = tested on: BT-549 breast
[7] = tested on: HS 578T breast
[8] = tested on: SN12C renal
[9] = tested on: RPMI-8226 leukemia
[10] = tested on: RXF 393 renal
[11] = tested on: SF-539 CNS
[12] = tested on: CAKI-1 renal
[13] = tested on: U251 CNS
[14] = tested on: COLO 205 colon
[15] = tested on: NCI-H522 lung
[16] = tested on: SF-268 CNS
[17] = tested on: KM12 colon
[18] = tested on: LOX IMVI melanoma
[19] = tested on: SR leukemia
[20] = tested on: SF-295 CNS
[21] = tested on: HOP-18 NSCLC
[22] = tested on: ACHN renal
[23] = tested on: XF 498 CNS
[24] = tested on: MDA-MB-231 breast
[25] = tested on: CCRF-CEM leukemia
[26] = tested on: M14 melanoma
[27] = tested on: UO-31 renal
[28] = tested on: P388 leukemia
[29] = tested on: K-562 leukemia
[30] = tested on: KM20L2 colon
[31] = tested on: DLD-1 colon
[32] = tested on: HCT-116 colon
[33] = tested on: SNB-78 CNS
[34] = tested on: UACC-62 melanoma
[35] = tested on: DMS 273 small cell lung
[36] = tested on: NCI/ADR-RES ovarian
[37] = tested on: OVCAR-8 ovarian
[38] = tested on: SK-MEL-2 melanoma
[39] = tested on: MCF7 breast
[40] = tested on: HCC-2998 colon
[41] = tested on: A498 renal
[42] = tested on: MDA-N
[43] = tested on: T-47D breast
[44] = tested on: LXFL 529 NSCLC
[45] = tested on: P388/ADR leukemia
[46] = tested on: HOP-92 NSCLC
[47] = tested on: UACC-257 melanoma
[48] = tested on: 786-0 renal
[49] = tested on: OVCAR-5 ovarian
[50] = tested on: MALME-3M melanoma
[51] = tested on: OVCAR-4 ovarian
[52] = tested on: EKVX NSCLC

Question: Which TGI [1] does the source give for O=NN(CCCl)C(=O)NCCCl here?
Answer: 147 µM and 165 µM

Question: What about the GI50 [2] of the same compound?
Answer: 50 µM and 331 µM

Question: What about the TGI [2] of the same compound?
Answer: 127 µM and 147 µM and > 500 µM

Question: What about the GI50 [3] of the same compound?
Answer: 61.1 µM and 169 µM

Question: What about the TGI [3] of the same compound?
Answer: 250 µM and 168 µM and > 380 µM

Question: What about the GI50 [4] of the same compound?
Answer: 40.1 µM and 102 µM

Question: And the TGI [4]?
Answer: 102 µM and 130 µM and 229 µM

Question: And the GI50 [5]?
Answer: 62.4 µM

Question: And the TGI [5]?
Answer: 250 µM and 168 µM

Question: And the GI50 [6]?
Answer: 47.3 µM and 251 µM

Question: What about the TGI [6] of the same compound?
Answer: 92.8 µM and 148 µM and > 300 µM

Question: What about the GI50 [7] of the same compound?
Answer: 122 µM and 252 µM

Question: What about the TGI [7] of the same compound?
Answer: 205 µM and 231 µM and > 317 µM

Question: What about the GI50 [8] of the same compound?
Answer: 240 µM

Question: What about the TGI [8] of the same compound?
Answer: 185 µM and 151 µM and > 310 µM

Question: And the GI50 [9]?
Answer: 34.3 µM and 118 µM

Question: What about the TGI [9] of the same compound?
Answer: 120 µM and 198 µM and 260 µM

Question: And the GI50 [10]?
Answer: 45.3 µM and > 238 µM

Question: And the TGI [10]?
Answer: 86.6 µM and 149 µM and > 299 µM

Question: And the GI50 [11]?
Answer: 31 µM and 84.1 µM

Question: And the TGI [11]?
Answer: 92.6 µM and 116 µM and 190 µM

Question: What about the GI50 [12] of the same compound?
Answer: 44.9 µM and 186 µM

Question: And the TGI [12]?
Answer: 103 µM and 150 µM and > 278 µM

Question: And the GI50 [13]?
Answer: 31.3 µM and 146 µM

Question: And the TGI [13]?
Answer: 66.4 µM and 124 µM and > 306 µM

Question: What about the GI50 [14] of the same compound?
Answer: 47.2 µM and 202 µM

Question: What about the TGI [14] of the same compound?
Answer: 90.2 µM and 144 µM and > 286 µM

Question: And the GI50 [15]?
Answer: 47.7 µM and 102 µM

Question: What about the TGI [15] of the same compound?
Answer: 107 µM and 113 µM and 179 µM

Question: What about the GI50 [16] of the same compound?
Answer: 31 µM

Question: And the TGI [16]?
Answer: 98.4 µM and 138 µM and > 259 µM

Question: And the GI50 [17]?
Answer: > 500 µM

Question: And the TGI [17]?
Answer: 250 µM and 194 µM and > 500 µM

Question: What about the GI50 [18] of the same compound?
Answer: 29.5 µM and 170 µM

Question: And the TGI [18]?
Answer: 67.4 µM and 124 µM and 362 µM

Question: And the GI50 [19]?
Answer: 38.5 µM

Question: And the TGI [19]?
Answer: 122 µM and 97.7 µM

Question: And the GI50 [20]?
Answer: 36.3 µM and 123 µM

Question: What about the TGI [20] of the same compound?
Answer: 250 µM and 126 µM and > 380 µM

Question: What about the TGI [21] of the same compound?
Answer: 160 µM

Question: What about the GI50 [22] of the same compound?
Answer: 64.4 µM

Question: And the TGI [22]?
Answer: 170 µM and 172 µM

Question: What about the TGI [23] of the same compound?
Answer: 135 µM

Question: What about the GI50 [24] of the same compound?
Answer: 61.8 µM and 224 µM

Question: And the TGI [24]?
Answer: 164 µM and 160 µM and > 295 µM

Question: And the GI50 [25]?
Answer: 46 µM and 33.6 µM

Question: What about the TGI [25] of the same compound?
Answer: 142 µM and 97.8 µM and 65.6 µM

Question: What about the GI50 [26] of the same compound?
Answer: 215 µM

Question: And the TGI [26]?
Answer: 234 µM and 158 µM and > 308 µM

Question: And the GI50 [27]?
Answer: 75.9 µM

Question: And the TGI [27]?
Answer: 148 µM and 186 µM and 179 µM

Question: What about the TGI [28] of the same compound?
Answer: 40.9 µM

Question: What about the TGI [29] of the same compound?
Answer: 44.6 µM and 206 µM and 280 µM

Question: And the TGI [30]?
Answer: 205 µM

Question: What about the TGI [31] of the same compound?
Answer: 176 µM

Question: And the GI50 [32]?
Answer: 62.5 µM and 112 µM

Question: What about the TGI [32] of the same compound?
Answer: 155 µM and 156 µM and 256 µM

Question: What about the TGI [33] of the same compound?
Answer: 198 µM

Question: What about the GI50 [34] of the same compound?
Answer: 44.9 µM and > 151 µM

Question: What about the TGI [34] of the same compound?
Answer: 169 µM and 91.9 µM and > 260 µM

Question: What about the TGI [35] of the same compound?
Answer: 157 µM

Question: And the GI50 [36]?
Answer: 61.7 µM and 266 µM

Question: What about the TGI [36] of the same compound?
Answer: 156 µM and 234 µM and > 422 µM

Question: What about the GI50 [37] of the same compound?
Answer: 51.3 µM and > 320 µM

Question: What about the TGI [37] of the same compound?
Answer: 164 µM and 197 µM and > 437 µM

Question: And the TGI [38]?
Answer: 115 µM and 178 µM and > 500 µM

Question: What about the GI50 [39] of the same compound?
Answer: 231 µM

Question: What about the TGI [39] of the same compound?
Answer: 250 µM and 191 µM and > 312 µM

Question: What about the GI50 [40] of the same compound?
Answer: 63.5 µM and 260 µM

Question: And the TGI [40]?
Answer: 161 µM and 201 µM and > 370 µM

Question: What about the GI50 [41] of the same compound?
Answer: 178 µM

Question: What about the TGI [41] of the same compound?
Answer: 250 µM and 221 µM

Question: And the GI50 [42]?
Answer: 210 µM

Question: What about the TGI [42] of the same compound?
Answer: 158 µM and > 301 µM

Question: And the GI50 [43]?
Answer: 74.7 µM and 234 µM

Question: What about the TGI [43] of the same compound?
Answer: 250 µM and 220 µM and > 331 µM

Question: What about the TGI [44] of the same compound?
Answer: 141 µM

Question: What about the TGI [45] of the same compound?
Answer: 48 µM

Question: What about the GI50 [46] of the same compound?
Answer: 193 µM

Question: And the TGI [46]?
Answer: 151 µM and > 262 µM

Question: And the GI50 [47]?
Answer: > 258 µM

Question: What about the TGI [47] of the same compound?
Answer: 238 µM and 159 µM and > 369 µM

Question: What about the GI50 [48] of the same compound?
Answer: 60 µM and 98.6 µM

Question: And the TGI [48]?
Answer: 141 µM and 113 µM and > 263 µM

Question: And the GI50 [49]?
Answer: 52.3 µM and > 500 µM

Question: And the TGI [49]?
Answer: 104 µM and 184 µM and > 500 µM

Question: What about the GI50 [50] of the same compound?
Answer: 55.9 µM and 216 µM

Question: What about the TGI [50] of the same compound?
Answer: 108 µM and 161 µM and > 294 µM

Question: And the GI50 [51]?
Answer: 42.7 µM and > 352 µM

Question: And the TGI [51]?
Answer: 83.3 µM and 161 µM and > 398 µM

Question: And the GI50 [52]?
Answer: 152 µM and > 268 µM

Question: And the TGI [52]?
Answer: 250 µM and 225 µM and > 326 µM
